Test results from patent EP2607478A1, “Phenanthroline treated MSC” (Universiteit Twente, priority 2011, dated 2013).

Tested on: MSCs
Assay: Whole genome expression analysis (Illumina microarray) of treated MSCs
Type: cell-based, Human
Experimental: MSCs were seeded in T25 flasks at 5000 cells/cm^2 and allowed to attach overnight in proliferation medium. […] After 48 hours, RNA was isolated as described above. From 500 ng of RNA, cRNA was synthesized using the Illumina TotalPrep RNA amplification Kit (Ambion), according to the manufacturer's protocol and the quality of RNA and cRNA was verified on a Bioanalyzer 2100 (Agilent). Microarrays were performed using Illumina HT-12 v4 expression Beadchips, according to the manufacturer's protocol. Briefly, 750 ng of cRNA was hybridized on the array overnight after which the array was washed and blocked. Then, by addition of streptavidin Cy-3 a fluorescent signal was developed. Arrays were scanned on an Illumina iScan reader and raw intensity values were background corrected in GenomeStudio (Illumina). Further data processing and statistical testing were performed with R and Bioconductor statistical software (www.bioconductor.org), using package lumi. Raw intensity values were transformed using variance stabilization and a quantile normalization was performed. A linear modelling approach with empirical Bayesian methods, as implemented in Limma package (54), was applied for differential expression analysis of the resulting probe-level expression values. A gene list, containing only those genes with an absolute 1.5-fold change between different treatments, was uploaded to Ingenuity Pathway Analysis (IPA) software and used for core analysis. Pathways or networks with a p-value of 0.05 were considered statistically significant.

## c1cnc2c(c1)ccc1cccnc12 [PHE, 1, 10-phenanthroline]
ProbeID ILMN_1699651
  logFC(D142_PHE - D142_BAS) IL6: -2,31
ProbeID ILMN_1699772
  logFC(D142_PHE - D142_BAS) RRAGD: 3,13
ProbeID ILMN_1699980
  logFC(D142_PHE - D142_BAS) TSPAN18: -2,03
ProbeID ILMN_1700268, PHE vs BAS
  logFC(D142_PHE - D142_BAS) QPRT: -2,59
ProbeID ILMN_1701441, PHE vs BAS
  logFC(D142_PHE - D142_BAS) LPAR1: -2,35
ProbeID ILMN_1702363, PHE vs BAS
  logFC(D142_PHE - D142_BAS) SULF1: -2,90
ProbeID ILMN_1703123
  logFC(D142_PHE - D142_BAS) AXUD1: 2,51
ProbeID ILMN_1703330
  logFC(D142_PHE - D142_BAS) FEM1C: 2,53
ProbeID ILMN_1703558
  logFC(D142_PHE - D142_BAS) FHL3: -2,34
ProbeID ILMN_1704154
  logFC(D142_PHE - D142_BAS) TNFRSF19: -2,24
ProbeID ILMN_1704446
  logFC(D142_PHE - D142_BAS) SLC6A10P: 3,23
ProbeID ILMN_1704531
  logFC(D142_PHE - D142_BAS) PTGR1: 2,56
ProbeID ILMN_1705750, PHE vs BAS
  logFC(D142_PHE - D142_BAS) TGM2: -2,98
ProbeID ILMN_1706498
  logFC(D142_PHE - D142_BAS) DSE: -2,19
ProbeID ILMN_1707124
  logFC(D142_PHE - D142_BAS) TFPI: 2,04
ProbeID ILMN_1707342
  logFC(D142_PHE - D142_BAS) LRIG1: 2,82
ProbeID ILMN_1707727
  logFC(D142_PHE - D142_BAS) ANGPTL4: 7,28
ProbeID ILMN_1708486
  logFC(D142_PHE - D142_BAS) CNN2: -2,15
ProbeID ILMN_1708672
  logFC(D142_PHE - D142_BAS) ACAT2: -2,03
ProbeID ILMN_1708934
  logFC(D142_PHE - D142_BAS) ADM: 2,48
ProbeID ILMN_1709043
  logFC(D142_PHE - D142_BAS) C9orf46: -2,08
ProbeID ILMN_1711439
  logFC(D142_PHE - D142_BAS) EMILIN1: -2,30
ProbeID ILMN_1712684
  logFC(D142_PHE - D142_BAS) FAM20C: -2,12
ProbeID ILMN_1713499
  logFC(D142_PHE - D142_BAS) WISP1: -2,11
ProbeID ILMN_1714730
  logFC(D142_PHE - D142_BAS) UBE2C: -2,16
ProbeID ILMN_1714741
  logFC(D142_PHE - D142_BAS) LOC346887: 2,46
ProbeID ILMN_1715508, PHE vs BAS
  logFC(D142_PHE - D142_BAS) NNMT: -2,62
ProbeID ILMN_1716552
  logFC(D142_PHE - D142_BAS) ENAH: -2,13
ProbeID ILMN_1716608
  logFC(D142_PHE - D142_BAS) NGF: 2,06
ProbeID ILMN_1716687
  logFC(D142_PHE - D142_BAS) TPM1: -2,28
ProbeID ILMN_1716733
  logFC(D142_PHE - D142_BAS) MYOM2: 2,05
ProbeID ILMN_1717056
  logFC(D142_PHE - D142_BAS) TXNRD1: 2,75
ProbeID ILMN_1718866
  logFC(D142_PHE - D142_BAS) C5orf46: 3,15
ProbeID ILMN_1718961
  logFC(D142_PHE - D142_BAS) BNIP3L: 2,88
ProbeID ILMN_1719392, PHE vs BAS
  logFC(D142_PHE - D142_BAS) FH: -2,67
ProbeID ILMN_1719759, PHE vs BAS
  logFC(D142_PHE - D142_BAS) TNC: -3,17
ProbeID ILMN_1720373
  logFC(D142_PHE - D142_BAS) SLC7A5: 2,69
ProbeID ILMN_1720998
  logFC(D142_PHE - D142_BAS) CA12: 2,41
ProbeID ILMN_1722532
  logFC(D142_PHE - D142_BAS) JMJD1A: 3,45
ProbeID ILMN_1723486
  logFC(D142_PHE - D142_BAS) HK2: 2,90
ProbeID ILMN_1723912
  logFC(D142_PHE - D142_BAS) IFI44L: -2,15
ProbeID ILMN_1724658
  logFC(D142_PHE - D142_BAS) BNIP3: 3,47
ProbeID ILMN_1724700
  logFC(D142_PHE - D142_BAS) RIOK3: 2,40
ProbeID ILMN_1725090, PHE vs BAS
  logFC(D142_PHE - D142_BAS) CTHRC1: -2,95
ProbeID ILMN_1725139
  logFC(D142_PHE - D142_BAS) CA9: 3,69
ProbeID ILMN_1725241
  logFC(D142_PHE - D142_BAS) GSTK1: -2,02
ProbeID ILMN_1726456
  logFC(D142_PHE - D142_BAS) SLC3A2: 2,24
ProbeID ILMN_1726589
  logFC(D142_PHE - D142_BAS) CD248: -2,13
ProbeID ILMN_1727532, PHE vs BAS
  logFC(D142_PHE - D142_BAS) OLFML3: -3,25
ProbeID ILMN_1728047
  logFC(D142_PHE - D142_BAS) AKR1A1: -2,21
ProbeID ILMN_1728934, PHE vs BAS
  logFC(D142_PHE - D142_BAS) PRC1: -2,53
ProbeID ILMN_1729117
  logFC(D142_PHE - D142_BAS) COL5A2: -2,21
ProbeID ILMN_1729288
  logFC(D142_PHE - D142_BAS) C1QTNF6: -2,08
ProbeID ILMN_1731966
  logFC(D142_PHE - D142_BAS) LEPR: -2,03
ProbeID ILMN_1732612
  logFC(D142_PHE - D142_BAS) SHB: 2,06
ProbeID ILMN_1733094, PHE vs BAS
  logFC(D142_PHE - D142_BAS) STEAP1: -2,54
ProbeID ILMN_1733110
  logFC(D142_PHE - D142_BAS) RASSF7: 2,83
ProbeID ILMN_1733756, PHE vs BAS
  logFC(D142_PHE - D142_BAS) COL12A1: -3,95
ProbeID ILMN_1736670
  logFC(D142_PHE - D142_BAS) PPP1R3C: 2,44
ProbeID ILMN_1738116, PHE vs BAS
  logFC(D142_PHE - D142_BAS) TMEM119: -4,96
ProbeID ILMN_1738552
  logFC(D142_PHE - D142_BAS) SLC1A3: -2,18
ProbeID ILMN_1738742
  logFC(D142_PHE - D142_BAS) PLAT: 2,16
ProbeID ILMN_1739496, PHE vs BAS
  logFC(D142_PHE - D142_BAS) PRRX1: -2,36
ProbeID ILMN_1739942
  logFC(D142_PHE - D142_BAS) FAM117B: 2,48
ProbeID ILMN_1740407, PHE vs BAS
  logFC(D142_PHE - D142_BAS) CHSY3: -2,57
ProbeID ILMN_1741148
  logFC(D142_PHE - D142_BAS) ALDOA: 2,28
ProbeID ILMN_1741200
  logFC(D142_PHE - D142_BAS) RFX5: -2,04
ProbeID ILMN_1741356, PHE vs BAS
  logFC(D142_PHE - D142_BAS) PRICKLE1: -2,37
ProbeID ILMN_1744487, PHE vs BAS
  logFC(D142_PHE - D142_BAS) C1QTNF5: -2,59
ProbeID ILMN_1744963
  logFC(D142_PHE - D142_BAS) ERO1L: 3,84
ProbeID ILMN_1747016
  logFC(D142_PHE - D142_BAS) CEP55: -2,01
ProbeID ILMN_1747195
  logFC(D142_PHE - D142_BAS) PSMB8: -2,24
ProbeID ILMN_1748883
  logFC(D142_PHE - D142_BAS) CDKN2D: 2,14
ProbeID ILMN_1749838
  logFC(D142_PHE - D142_BAS) MZF1: 2,45
ProbeID ILMN_1749892
  logFC(D142_PHE - D142_BAS) EGLN1: 2,72
ProbeID ILMN_1750324
  logFC(D142_PHE - D142_BAS) IGFBP5: 2,34
ProbeID ILMN_1750912
  logFC(D142_PHE - D142_BAS) STXBP6: 2,42
ProbeID ILMN_1751120
  logFC(D142_PHE - D142_BAS) HIST1H4H: 2,86
ProbeID ILMN_1751228
  logFC(D142_PHE - D142_BAS) C20orf46: 2,17
ProbeID ILMN_1752226
  logFC(D142_PHE - D142_BAS) P2RY11: 2,23
ProbeID ILMN_1752510
  logFC(D142_PHE - D142_BAS) FAM13A: 3,25
ProbeID ILMN_1754969, PHE vs BAS
  logFC(D142_PHE - D142_BAS) LMCD1: -2,67
ProbeID ILMN_1755749
  logFC(D142_PHE - D142_BAS) PGK1: 2,85
ProbeID ILMN_1755974
  logFC(D142_PHE - D142_BAS) ALDOC: 2,83
ProbeID ILMN_1756417
  logFC(D142_PHE - D142_BAS) ANKRD37: 4,25
ProbeID ILMN_1756572, PHE vs BAS
  logFC(D142_PHE - D142_BAS) COQ2: -2,49
ProbeID ILMN_1756573
  logFC(D142_PHE - D142_BAS) NDUFA4L2: 5,61
ProbeID ILMN_1756992
  logFC(D142_PHE - D142_BAS) MUC1: 2,56
ProbeID ILMN_1757877
  logFC(D142_PHE - D142_BAS) HCFC1R1: 2,05
ProbeID ILMN_1758164
  logFC(D142_PHE - D142_BAS) STC1: 4,35
ProbeID ILMN_1758623
  logFC(D142_PHE - D142_BAS) HIST1H2BD: 3,29
ProbeID ILMN_1758626
  logFC(D142_PHE - D142_BAS) IDS: 2,05
ProbeID ILMN_1758672
  logFC(D142_PHE - D142_BAS) FAM107B: 2,44
